Results on 17 compounds are retold here after patent US11414429B2, “Compound or pharmaceutically acceptable salt thereof” (RIKEN, priority 2016, dated 2022).

Where two headings read alike, the source gives them in different places. A value given as a limit tells only on which side of the number the result lay.

As a reminder, the IC50 is the concentration that inhibits the measured activity by half.

For one assay, the target named is T1, tankyrase 2 (TNKS 2) (Homo sapiens, UniProt Q9H2K2).
T1 construct: 613-1, 116aa; made in house; host or cells: cell-free protein synthesis system
T1 sequence (Q9H2K2 613-1166): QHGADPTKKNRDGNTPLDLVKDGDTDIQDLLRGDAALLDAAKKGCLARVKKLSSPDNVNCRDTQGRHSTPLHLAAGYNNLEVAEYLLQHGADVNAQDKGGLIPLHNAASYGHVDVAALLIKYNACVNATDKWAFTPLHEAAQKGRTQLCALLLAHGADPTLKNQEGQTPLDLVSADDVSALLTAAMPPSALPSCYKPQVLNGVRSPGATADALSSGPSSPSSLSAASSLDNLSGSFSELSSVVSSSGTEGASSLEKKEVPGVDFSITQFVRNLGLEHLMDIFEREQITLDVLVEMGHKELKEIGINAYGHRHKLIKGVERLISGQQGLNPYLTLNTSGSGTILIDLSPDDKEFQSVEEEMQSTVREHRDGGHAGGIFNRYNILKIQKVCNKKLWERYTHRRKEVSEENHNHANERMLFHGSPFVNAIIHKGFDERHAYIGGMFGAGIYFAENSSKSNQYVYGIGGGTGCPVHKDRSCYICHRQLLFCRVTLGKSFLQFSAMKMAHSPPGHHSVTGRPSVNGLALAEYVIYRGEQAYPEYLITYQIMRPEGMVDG
The assay can be described thus: Tankyrase inhibitory activity test (ELISA, self-polyADP ribosylation), tankyrase 2. The class given is biochemical. The note with it: tankyrase 2, ELISA, self-polyADP ribosylation; read-out: TNKS2 inhibitory activity (IC50 class). Here is the method:
(§1) (Test Example 1) Tankyrase Inhibitory Activity Test
(§2) For each of the compounds obtained in Examples (the test target compounds), the tankyrase inhibitory activity (an inhibitory activity against tankyrase 1 (TNKS 1) and an inhibitory activity against tankyrase 2 (TNKS 2)) was evaluated by measuring the enzymatic activity of tankyrase 1 and the enzymatic activity of tankyrase 2 by the ELISA technique using self-polyADP ribosylation as an index. First, Flag-tag fusion tankyrase 1 (1,024-1,327aa, SAM+PARP) and tankyrase 2 (613-1, 116aa, ANK5+SAM+PARP) were each synthesized by a cell-free protein synthesis system and diluted with a Tris buffer (50 mM Tris-HCl (pH 8.0), 150 mM NaCl, 10% glycerol). Then, 50 μL of the diluted tankyrase 1 or tankyrase 2 was added to a plate on which the anti-FLAGM 2 monoclonal antibody was immobilized (Anti-FLAG high sensitivity M2 coated plate) (SIGMA Corporation), and was allowed to stand at 4° C. overnight. Thereafter, the plate was washed four times with a PBS buffer containing 0.1% Triton X-100 (PBST buffer).
(§3) Subsequently, the test target compound diluted with an assay buffer (50 mM Tris-HCl (pH 8.0), 4 mM MgCl2, 0.2 mM DTT) (using DMSO as a control) was added to each well of the plate and was allowed to stand at room temperature for 10 minutes. Thereafter, a biotin-labeled NAD solution (225 μM NAD, 25 μM 6-Biotin-17-NAD (Trevigen Inc.)) was added as a donor substrate and mixed with the resultant test target compound, and the reaction was allowed to proceed at 30° C. for 45 minutes. Instead of the biotin-labeled NAD solution, distilled water was added to blank wells. After the reaction, the plate was washed four times with the PBST buffer. Thereafter, HRP (horseradish peroxidase)-labeled streptavidin (Trevigen Inc.) diluted 1,000-fold with the PBS buffer was added to each well, and the reaction was allowed to proceed at room temperature for 20 minutes. After the plate was washed four times with the PBST buffer, a chemiluminescent substrate solution TACS-Sapphire (Trevigen Inc.) was added to each well and the reaction was allowed to proceed at room temperature for 20 minutes. Then, the chemiluminescence intensity was measured using a chemiluminescence measuring apparatus.
(§4) The residual enzyme activity in the presence of the test target compound was determined in accordance with the following formula. Based on the residual enzyme activity at multiple concentrations of the test target compound, an enzyme inhibition activity was calculated as a 50% inhibitory concentration (IC50 value) using data analysis software named Origin (LightStone Corp.).
On the technique in general: An ELISA detects its analyte on a solid surface through an enzyme-linked reagent.

In a further assay the target is T2, tankyrase 1 (TNKS 1) (Homo sapiens, UniProt O95271).
T2 construct: 1,024-1,327aa; made in house; host or cells: cell-free protein synthesis system
T2 sequence (O95271 1024-1327): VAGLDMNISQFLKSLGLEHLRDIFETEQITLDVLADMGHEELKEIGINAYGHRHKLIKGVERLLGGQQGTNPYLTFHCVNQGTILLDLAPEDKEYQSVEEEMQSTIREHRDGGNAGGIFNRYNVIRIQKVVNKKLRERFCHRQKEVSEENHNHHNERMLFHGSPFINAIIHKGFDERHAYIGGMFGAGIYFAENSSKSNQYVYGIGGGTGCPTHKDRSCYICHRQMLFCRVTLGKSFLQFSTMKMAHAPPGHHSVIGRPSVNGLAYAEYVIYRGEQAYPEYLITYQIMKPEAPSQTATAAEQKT
Briefly: Tankyrase inhibitory activity test (ELISA, self-polyADP ribosylation), tankyrase 1. The following applies: tankyrase 1, ELISA, self-polyADP ribosylation; read-out: TNKS1 inhibitory activity (IC50 class). The class given is biochemical. Here is the method: as §1, §2, §3, §4

The subject of assay [1] is human colorectal cancer cell line, COLO-320DM. Briefly: Cell proliferation inhibitory activity test (Celltiter-Glo Luminescent Cell Viability Assay). The class given is cell-based. The following applies: COLO-320DM cells, 96 hours. How it is done:
(Test Example 2) Cell Proliferation Inhibitory Activity Test
The cell proliferation inhibitory activity of the compound obtained in each of Examples against human colorectal cancer cell line, COLO-320DM was evaluated by Celltiter-Glo Luminescent Cell Viability Assay (Promega Corporation, G7573). The COLO-320 DM cells were cultured in a RPMI-1640 medium (Wako Pure Chemical Industries, Ltd., 189-02025) containing 10% fetal bovine serum and 2 mM of glutamine. The cultured cells were washed with PBS and then detached with trypsin/EDTA to prepare a cell solution containing 3×10^4 cells/mL.
Next, the cell solution was seeded in a 96 well microplate (Thermo/Nunc, 136101) in an amount of 70 μL/well and was cultured overnight under conditions at 37° C. with 5% CO2. On the next day, 10 μL/well of a solution in which the test target compound (DMSO solution) was diluted with the cell culture medium (a final DMSO concentration of 1%) was added and the reaction was allowed to proceed under conditions at 37° C. with 5% CO2 for 96 hours (a 1% DMSO solution was used as a control). Subsequently, 80 μL/well of Celltiter-Glo Luminescent Cell Viability Assay reagent (Promega Corporation, G7573) was added, followed by agitation for 2 minutes with a shaker under shielding with aluminum foil. Thereafter, the resultant solution was allowed to stand for reaction at room temperature for 10 minutes.
After that, the luminescent signal was measured with a luminometer (Biotech, Synergy). The cell proliferation inhibitory activity was evaluated by obtaining a percentage of a cell proliferation volume of each compound-added group with respect to a cell proliferation volume (100%) of a control group in which no test target component solution was added, and calculating a value of compound concentration (GI50) required to reduce the remaining cell volume to 50% of the remaining cell volume of the control. […] The results are shown in Tables 120 to 123 together with the results of the tankyrase inhibition activity test.
(In ATP-based viability assays light output follows the ATP content of the culture.)

The mark [2] stands for this setting: read-out: COLO-320 DM cell proliferation inhibitory activity (GI50 class).
[3] abbreviates: class symbols, read-out: COLO-320 DM (cell proliferation inhibitory activity, GI50 value).

Regarding `CN(C)CCOc1cc(F)c2c(c1)C(=O)OC21CCN(c2nc3c(c(=O)[nH]2)CCCN3C)CC1` [Example 7, 5-[2-(dimethylamino)ethoxy]-7-fluoro-1′-(8-methyl-4-oxo-3,4,5,6,7,8-hexahydropyrido[2,3-d]pyrimidin-2-yl)-3H-spiro[isobenzofuran-1,4′-piperidin]-3-one], the IC50 at tankyrase 2 (TNKS 2) and on tankyrase 1 (TNKS 1) was under 0.02 µM each time. Further, the GI50 in assay [1] (setting [2]) was 0.6 to 1 µM.

For the compound `CN(C)C(=O)COc1cc(F)c2c(c1)C(=O)OC21CCN(c2nc3c(c(=O)[nH]2)CCCN3C)CC1` [Example 55, 2-{[7-fluoro-1′-(8-methyl-4-oxo-3,4,5,6,7,8-hexahydro-pyrido[2,3-d)pyrimidin-2-yl)-3-oxo-3H-spiro[isobenzo-furan-1,4′-piperidin)-5-yl)oxy}-N,N-dimethyl-acetamid], the IC50 on tankyrase 2 (TNKS 2) and on tankyrase 1 (TNKS 1) was under 0.02 µM throughout. Moreover, the GI50 in assay [1] (setting [2]) was in the range of 0.6 to 1 µM.

`COc1cccc(CN2CC3(CCN(c4nc5c(c(=O)[nH]4)CCCC5)CC3)c3ccccc32)c1` [Example 99, 2-[1-(3-methoxy-benzyl)spiro[indoline-3,4′-piperidin]-1′-yl]-5,6,7,8-tetrahydroquinazolin-4(3H)-one]: the results for the IC50 on tankyrase 2 (TNKS 2) and on tankyrase 1 (TNKS 1) were under 0.02 µM and 0.02 to 0.2 µM, respectively. Besides, the GI50 in assay [1] (setting [2]) lay in the range of 0.6 to 1 µM.

With `O=c1[nH]c(N2CCC3(CC2)CN(Cc2ccncc2)c2ccccc23)nc2c1CCCC2` [Example 100, 2-[1-(pyridin-4-ylmethyl)spiro[indoline-3,4′-piperidin]-1′-yl]-5,6,7,8-tetrahydroquinazolin-4(3H)-one], the values for the IC50 at tankyrase 2 (TNKS 2) and on tankyrase 1 (TNKS 1) were 0.02 to 0.2 µM and under 0.02 µM, respectively. In addition, the GI50 in assay [1] (setting [2]) is 0.6 to 1 µM.

Turning to `O=c1[nH]c(N2CCC3(CC2)CN(Cc2cccnc2)c2ccccc23)nc2c1CCCC2` [Example 101, 2-[1-(pyridin-3-ylmethyl)spiro[indoline-3,4′-piperidin]-1′-yl]-5,6,7,8-tetrahydroquinazolin-4(3H)-one], the IC50 on tankyrase 2 (TNKS 2) and on tankyrase 1 (TNKS 1) was 0.02 to 0.2 µM in each case. The GI50 in assay [1] (setting [2]) fell in the range of 0.6 to 1 µM.

As to `COc1ccc2c(c1)C1(CCN(c3nc4c(c(=O)[nH]3)CCCC4)CC1)CN2C` [Example 147, 2-(5-methoxy-1-meth-ylspiro[indoline-3,4′-piperidin]-1′-yl)-5,6,7,8-tetrahydroquinazolin-4(3H)-one], the IC50 was under 0.02 µM on tankyrase 2 (TNKS 2) and 0.02 to 0.2 µM at tankyrase 1 (TNKS 1). Besides, the GI50 in assay [1] (setting [2]) fell in the range of 0.6 to 1 µM.

On to `CN1CCCc2c1nc(N1CCC3(CC1)C(=O)Nc1cccc(F)c13)[nH]c2=O` [Example 185, 2-(4-fluoro-2-oxospiro [indoline-3,4′-piperidin]-1′-yl)-8-methyl-5,6,7,8-tetrahydro-pyrido[2,3-d] pyrimidine-4(3H)-one], for which the IC50 at tankyrase 2 (TNKS 2) and on tankyrase 1 (TNKS 1) was under 0.02 µM throughout. For the same compound, the GI50 in assay [1] (setting [2]) was 0.1 to 0.6 µM.

As to `CCOC(=O)c1cc(Cl)c2c(c1)N(Cc1cccnc1)CC21CCN(c2nc3c(c(=O)[nH]2)CCCC3)CC1` [Example 193, ethyl 4-chloro-1′-(4-oxo-3,4,5,6,7,8-hexahydroquinazolin-2-yl)-1-(pyridin-3-yl) methylspiro [indoline-3,4′-piperidine]-6-carboxylate], the IC50 at tankyrase 2 (TNKS 2) and at tankyrase 1 (TNKS 1) was 0.02 to 0.2 µM in each case. Moreover, the GI50 in assay [1] (setting [2]) is 0.1 to 0.6 µM.

`O=C(NCCN1CCOCC1)c1cc(Cl)c2c(c1)N(Cc1cccnc1)CC21CCN(c2nc3c(c(=O)[nH]2)CCCC3)CC1` [Example 196, 4-chloro-N-(2-morpho-linoethyl)-1′-(4-oxo-3,4,5,6,7,8-hexahydro-quinazolin-2-yl)-1-(pyridin-3-ylmethyl) spiro[indoline-3,4′-piperidine]-6-carboxamide]: the IC50 on tankyrase 2 (TNKS 2) and on tankyrase 1 (TNKS 1) was under 0.02 µM in each case. For the same compound, the GI50 in assay [1] (setting [2]) was in the range of 0.6 to 1 µM.

Consider `O=c1[nH]c(N2CCC3(CC2)CN(Cc2cccnc2)c2cc(Cl)ccc23)nc2c1CCCC2` [Example 218, 2-(6-chloro-1-(pyridin-3-ylmethyl)spiro [indoline-3,4′-piperidin]-1′-yl)-5,6,7,8-tetrahydro-quinazolin-4(3H)-one], for which the half-maximal inhibitory concentration (IC50) at tankyrase 2 (TNKS 2) was under 0.02 µM; at tankyrase 1 (TNKS 1) it was 0.02 to 0.2 µM. For the same compound, the GI50 in assay [1] (setting [2]) fell in the range of 0.6 to 1 µM.

As to `O=c1[nH]c(N2CCC3(CC2)CN(Cc2cccnc2)c2cccc(Cl)c23)nc2c1CCCC2` [Example 221, 2-[4-chloro-1-(pyridin-3-yl)methylspiro [indoline-3,4′-piperidin] 1′-yl)-5,6,7,8-tetrahydro quinazolin-4(3H)-one], the IC50 at tankyrase 2 (TNKS 2) and on tankyrase 1 (TNKS 1) was under 0.02 µM throughout. For the same compound, in assay [1] (setting [2]), the GI50 lay within 0.1 to 0.6 µM.

As for `O=C1N(Cc2cccnc2)c2cccc(Cl)c2C12CCN(c1nc3c(c(=O)[nH]1)CCCC3)CC2` [Example 226, 4-chloro-1′-(4-oxo-3,4,5,6,7,8-hexahydroquinazolin-2-yl)-1-(pyridin-3-ylmethyl) spiro [indoline-3,4′-piperidin]-2-one], the IC50 on tankyrase 2 (TNKS 2) and at tankyrase 1 (TNKS 1) was under 0.02 µM throughout. The GI50 in assay [1] (setting [2]) lay in the range of 0.1 to 0.6 µM.

As for `CN1C(=O)C2(CCN(c3nc4c(c(=O)[nH]3)CCCC4)CC2)c2c(Cl)cc(O)cc21` [Example 234, 4-chloro-6-hydroxy-1-methyl-1′-(4-oxo-3,4,5,6,7,8-hexahydro-quinazolin-2-yl)spiro [indoline-3,4′-piperidin]-2-one], the 50% inhibitory concentration (IC50) at tankyrase 2 (TNKS 2) and at tankyrase 1 (TNKS 1) was under 0.02 µM throughout. The GI50 in assay [1] (setting [2]) is 0.1 to 0.6 µM.

In the case of `O=c1[nH]c(N2CCC3(CC2)CN(Cc2cccnc2)c2cc(F)cc(F)c23)nc2c1CCCC2` [Example 251, 2-[4,6-difluoro-1-(pyridin-3-yl)methyl-spiro [indoline-3,4′-piperidin]-1′-yl]-5,6,7,8-tetrahydro-quinazolin-4(3H)-one], the IC50 at tankyrase 2 (TNKS 2) and on tankyrase 1 (TNKS 1) was under 0.02 µM each time. Besides, in assay [1] (setting [2]), the GI50 is 0.1 to 0.6 µM.

In the case of `CN1CCCc2c1nc(N1CCC3(CC1)C(=O)N(CC(F)(F)F)c1cc(OCC(=O)O)cc(F)c13)[nH]c2=O` [Example 408], the GI50 in assay [1] (setting [3]) was under 0.1 µM.

Consider `CN1CCCc2c1nc(N1CCC3(CC1)C(=O)N(C)c1c(OC4CCOC4)ccc(Cl)c13)[nH]c2=O` (stereo not drawn) [Example 433, 4-chloro-1′-(4-hydroxy-8-methyl-6,7-dihydro-5H-pyrido[2,3-d]pyrimidin-2-yl)-1-methyl-7-(oxolan-3-yloxy) spiro[indole-3,4′-piperidin]-2-one], for which the GI50 in assay [1] (setting [3]) was under 0.1 µM.

Turning to `CN1CCCc2c1nc(N1CCC3(CC1)C(=O)N(C)c1cc(C4CCC(O)CC4)cc(F)c13)[nH]c2=O` (stereo not drawn) [Example 468, 4-fluoro-6-(4-hydroxycyclohexyl)-1-methyl-1′-(8-methyl-4-oxo-3,4,5,6,7,8-hexahydropyrido[2,3-d]pyrimidin-2-yl)spiro[indole-3,4′-piperidine]-2(1H)-one], in assay [1] (setting [3]), the GI50 is under 0.1 µM.
